Results: publication doi:10.1101/2025.06.12.659322v2 (biorxiv, 2025)

These compounds were tested against Rv0183 (mtbMGL) (Mycobacterium tuberculosis, UniProt O07427) (assay: biochemical).
Chain of Rv0183 (mtbMGL) (O07427 whole entry): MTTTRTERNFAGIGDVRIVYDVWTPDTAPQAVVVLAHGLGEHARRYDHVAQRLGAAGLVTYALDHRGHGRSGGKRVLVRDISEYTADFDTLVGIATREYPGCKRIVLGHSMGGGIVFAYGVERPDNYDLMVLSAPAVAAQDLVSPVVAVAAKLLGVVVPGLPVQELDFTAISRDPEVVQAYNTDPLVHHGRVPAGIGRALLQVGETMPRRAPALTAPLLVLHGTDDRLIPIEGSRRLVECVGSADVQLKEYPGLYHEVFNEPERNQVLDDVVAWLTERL

**Q.** With `COc1ccc(-n2nc(C(=O)N3CC[C@@H](O)C3)cc2-c2ccccc2Cl)cc1` [ELF1, (R)-(5-(2-chlorophenyl)-1-(4-methoxyphenyl)-1H-pyrazol-3-yl)(3-hydroxypyrrolidin-1-yl)methanone] as the compound, how does the IC50 read?
**A.** The IC50 was 9.55 µM.

**Q.** Which IC50 does the source give for `COc1ccc(Nc2cc(-n3cc(C(=O)N4CC[C@@H](O)C4)cn3)ncn2)cc1` [ELF5, (R)-(3-hydroxypyrrolidin-1-yl)(1-(6-((4-methoxyphenyl)amino)pyrimidin-4-yl)-1H-pyrazol-4-yl)methanone] here?
**A.** The IC50 was 8.51 µM.

**Q.** `O=C(c1ccc(-c2cnc(-c3cccc(OC(F)(F)F)c3)o2)cc1)N1CC[C@@H](O)C1` [ELF8, (R)-(3-hydroxypyrrolidin-1-yl)(4-(2-(3-(trifluoromethoxy)phenyl)oxazol-5-yl)phenyl)methanone] was tested. Which IC50 did it give?
**A.** The IC50 was 4.26 µM.
